For one experiment, the system named is HCT-116. Put plainly: In vitro antiproliferative MTT assay, HCT-116. The class given is cell-based. Conditions: Homo sapiens, HCT-116, read-out: IC50 HCT-116. (In general: Tetrazolium dyes change colour on reduction, which living cells bring about.)
Another experiment deals with HepG-2. The experiment is described as follows: In vitro antiproliferative MTT assay, HepG-2. Conditions: Homo sapiens, HepG2, read-out: IC50 HepG-2. In kind it is cell-based.
The test system of the next experiment is MCF-7. The experiment is described as follows: In vitro antiproliferative MTT assay, MCF-7. The class given is cell-based. Conditions: Homo sapiens, MCF7, read-out: IC50 MCF-7.
The subject of the next experiment is WI-38. The experiment is described as follows: Cytotoxicity against normal WI-38 cells. As to conditions: Homo sapiens, WI-38, read-out: IC50 WI-38. The class given is cell-based.
Experiment [1] concerns HepG2 cells. Put plainly: Cell cycle analysis, flow cytometry, HepG2. In kind it is cell-based, human. Conditions: treated at IC50 (3a 4.82, 6 3.33, 15 3.31 μM), 72 h, single measurement. (In flow cytometry, cells or beads pass a laser one at a time.)
The test system of experiment [2] is HepG2 cells. The experiment is described as follows: Apoptosis analysis, Annexin V/PI, HepG2. In kind it is cell-based, human. As to conditions: at IC50, 72 h, single measurement.

The IC50 is the concentration that gives 50% inhibition.

As to `CNC(=O)c1cc(Oc2ccc(NC(=O)Nc3ccc(Cl)c(C(F)(F)F)c3)cc2)ccn1` [sorafenib], the concentration for half-maximal inhibition (IC50) in the experiment on HCT-116 was 9.3 ± 0.2 µM; in the experiment with HepG-2, 7.4 ± 0.25 µM; in the experiment on MCF-7, 6.72 ± 0.16 µM; in the experiment with WI-38, 35.71 ± 0.013 µM.
On to `CC[C@]1(O)C[C@@H]2CN(CCc3c([nH]c4ccccc34)[C@@](C(=O)OC)(c3cc4c(cc3OC)N(C)[C@H]3[C@@](O)(C(=O)OC)[C@H](OC(C)=O)[C@]5(CC)C=CCN6CC[C@]43[C@@H]65)C2)C1` [vinblastine], for which the concentration for half-maximal inhibition (IC50) in the experiment on HCT-116 stood at 3.21 ± 0.21 µM; in the experiment with HepG-2, 7.35 ± 0.52 µM; with MCF-7 it was 5.83 ± 0.61 µM.
Taken in the same sequence, the figures for `CCN(CC)C(=S)N/N=C(\C)c1ccc(S(=O)(=O)N2CCC(C)CC2)cc1` [Compound 5, (E)-N,N-Diethyl-2-(1-(4-((4-methylpiperidin-1-yl)sulfonyl)phenyl)ethylidene)hydrazine-1-carbothioamide] were 15.1 ± 0.75 µM, 10.7 ± 0.63 µM and 18.4 ± 0.85 µM.
Consider `COc1cccc2c1C(=O)c1c(O)c3c(c(O)c1C2=O)C[C@@](O)(C(=O)CO)C[C@@H]3O[C@H]1C[C@H](N)[C@H](O)[C@H](C)O1` [doxorubicin], for which the IC50 in the experiment on HCT-116 came out at 6.74 ± 0.4 µM. Besides, the IC50 in the experiment with HepG-2 came to 7.52 ± 0.31 µM. Also, in the experiment with MCF-7, the half-inhibitory concentration (IC50) worked out at 8.19 ± 0.62 µM. In the experiment with HepG2 cells [1], the “%G0-G1” value is on record as 48.26%, the “%G2/M” value was found to be 21.46%, the “%Pre-G1” value turned out to be 31.28% and the “%S” value was 30.28%. Besides, in the experiment with HepG2 cells [2], the apoptosis early is given as 7.43%, the apoptosis late is reported as 21.13%, the apoptosis total amounted to 31.28% and the necrosis is on record as 2.72%.
`C/C(=N\N)c1ccc(S(=O)(=O)N2CCC(C)CC2)cc1` [Compound 12, (E)-1-((4-(1-hydrazineylideneethyl)phenyl)sulfonyl)-4-methylpiperidine]: the IC50 in the experiment with HCT-116 was 87.3 ± 6.2 µM; in the experiment on HepG-2, 59.6 ± 3.3 µM; in the experiment on MCF-7, 96.1 ± 5.23 µM.

These data come from publication PMC12423892 (ACS Omega, 2025).
